Where no end group is shown, it is not given here.

The subject of assay [1] is iPS cells (clone name: 201B2 or 201B7). As to the kind of experiment: ALB ELISA of iPS cell culture supernatant. The format is cell-based, human. To be noted: peptide concentration in medium 6 μM; as culture time increased; FIG. 4. The protocol: The stem cell differentiation-inducing activity of the differentiation-inducing synthetic peptide (Sample 1) obtained in Example 1 was evaluated by quantifying changes over time in the expressed amounts (typically extracellular secretion) of AFP and ALB, which are proteins known as markers of differentiation into endodermal cells. It is known that AFP is expressed in cells that have differentiated into liver precursor cells among the endodermal cells, while ALB is expressed in cells that have differentiated sufficiently to function effectively as hepatocytes (that is, hepatocytes or hepatocyte-like cells). […]
50 μL of the accessory Chromogen Substrate Solution (coloring reagent) was then added per well, and left standing for 15 minutes in the dark. […] Absorbance A450 at 450 nm and absorbance A550 at 550 nm were then measured with a spectrophotometer in the reaction liquid in the wells.
Absorbance values A(450-550) were calculated by subtracting the absorbance A550 from the absorbance A450 obtained by the previous measurement (that is, absorbance A(450-550)=[…]) for each of the samples from the AFP evaluation test group and ALB evaluation test group. […]
(In general: In an ELISA, binding on a coated surface is turned into a signal by an enzyme label.)

For assay [2] the test system is unchanged. As to the kind of experiment: Quantitative RT-PCR of stem cell marker gene and germ layer differentiation marker genes in iPS cells. The format is cell-based, human. To be noted: peptide concentration 6.0 μM, FIG. 3. The protocol: The stem cell differentiation-inducing activity of a differentiation-inducing synthetic peptide (Sample 1) obtained in Example 1 above was evaluated by measuring changes over time in the expressed amounts of a stem cell differentiation marker gene (that is, a stem cell marker gene) and differentiation marker genes for the three kinds of germ layer cells. iPS cells that had been cultured and passaged in vitro were used as the test cells. The specifics of the evaluation test were as follows.
iPS cells (clone name: 201B2 or 201B7) were cultured as in Example 2 except that Sample 1 that had been prepared with DMSO/EtOH=1/1 to a peptide concentration of 4 mM was added 1.5 μL/well (that is to a peptide concentration of 6.0 μM in the well). A peptide-free group was also established as a comparative example. The medium was replaced and peptide was added two days, four days and six days after initiation of iPS cell culture. […]
25 to […] of purified RNA was supplied to quantitative RT-PCR, and the expressed amounts of a stem cell marker gene and differentiation marker genes for the three kinds of germ layer cells were quantified. […] A One Step SYBR® PrimeScript® PLUS RT-PCR Kit (TaKaRa Bio) was used for the quantitative RT-PCR, in accordance with the attached manual. […] The quantitative RT-PCR reaction consisted of 5 minutes of incubation at 42° C. to perform reverse transcription, followed by 10 seconds of incubation at 95° C., and 40 cycles consisting of 5 seconds at 95° and 31 seconds at 63° C.
The quantitative results for expression of a stem cell marker gene and differentiation marker genes for the three kinds of germ layer cells are shown in FIG. 3. The expressed amounts of these genes were first corrected by the expressed amounts of the GAPDH gene in each test group, and the relative expressed amount of the gene in the Sample 1 group relative to the expressed amount of the gene in the peptide-free group was determined by the ΔΔCt method.

On to “LLLLLLVGLTAPAGKKRTLRKNDRKKR-CONH2 (LLLLLLVGLTAPAGKKRTLRKNDRKKR-NH2) [Sample 1]”, for which, in assay [1], the “ALB level of the culture supernatant in comparison with peptide-free group with the same culture time” value was “increased dramatically”. Also, the “increase in the relative expressed amount of the AFP gene” value in assay [2] (20th day after initiation of culture) is on record as “particularly dramatic”. Also, the “expression timing of endodermal cell marker genes SOX17, GATA4 and FOXA2” value in assay [2] is listed as “sooner than the AFP gene”. Besides, the “relative expressed amount of the AFP gene (endodermal marker gene) relative to peptide-free group (ΔΔCt, GAPDH corrected)” value in assay [2] (beginning 13 days after initiation of culture) was “increased much more than the relative expressed amounts of the other genes”.

These data come from US10100284B2, “Method for inducing differentiation of pluripotent stem cells into endodermal cells” (TOAGOSEI CO., LTD., priority 2013, dated 2018).
